Test results from patent US9314420B2, “Acellular bioabsorbable tissue regeneration matrices” (priority 2005, dated 2016).
Read-outs that look alike come from different tables or passages of the source.

Legend:
[1] = test system: Fibroblast control cultures; settings: by day 7
Procedure: The inhibitors were added on day 0 to the Opticells® on the day of first feeding (day 5 or 6). Thereafter, cultures were fed with regular media. Samples from the respective treatments and controls were collected on day 21 and analyzed.
Fibroblast control cultures containing 0, 10, 30 and 100 nM of α-amanitin were cultured for one week.

[2] = test system: Neuroscreen® cells; test: Neuroscreen cell neurite outgrowth assay; type: cell-based, rat; settings: standard NGF response curve
Procedure: The Neuroscreen® cells responded by extending neurites.
Neuroscreen® cells were maintained prior to the interaction assay by routine culture on collagen coated plastic and subcultured at confluence using basal medium consisting of RPMI (Cat #10-040-CV, Mediatech), 4.0 mM Glutamine (CAT #25-005-CI, Mediatech) supplemented with 20% Horse Serum (Cat #35-030-CV, Mediatech), 10% Fetal Bovine Serum (Cat #35-010, Mediatech).
[…] Neuroscreen® cells were assayed for the formation of neurite process extension using immuno-staining for β-tubulin as follows. Cells were fixed after 4 days in culture by adding 10% v/v of 37% formaldehyde (Cat. #2106-01, J. T. Baker) directly to the culture medium in the well. […]
Only wells with cell counts above 100 cells per field were analyzed. […]
Human peripheral blood collected into ten 8 ml Vacutainer™ tubes containing K2EDTA was shipped overnight on ice and then placed vertically into a +4° C. fridge for 6 hours in order to allow the blood to gravity separate. […] After thoroughly mixing the contents of each conical tube, 10 ml quantities of the solutions were injected into separate sets of 5 Opticells™, and then placed horizontally into a 37° C., […], 2% O2, non-humidified incubator. […]

Q: What does the source list for `CC[C@H](C)[C@@H]1NC(=O)CNC(=O)[C@@H]2Cc3c([nH]c4cc(O)ccc34)[S+]([O-])C[C@@H](NC(=O)CNC1=O)C(=O)N[C@@H](CC(N)=O)C(=O)N1C[C@H](O)C[C@H]1C(=O)N[C@@H]([C@@H](C)[C@@H](O)CO)C(=O)N2` (stereo in doubt) [α-amanitin]?
A: Mortality ([1]; 10 nM): 60-70%; Mortality ([1]; 30 nM): 80-90%; Mortality ([1]; 100 nM): ~100%

Q: How did the “Effect of fresh NGF at amounts less than 10 ng per well” value [2] turn out when “NGF: nerve growth factor, positive control at 100 ng/ml” was run?
A: Its value is “limited or no effect”.

Q: What about the “NGF amount at which maximal responses occur” value ([2]; fresh NGF) of the same compound?
A: Its value is 100 ng of NGF per well.
